Measured values as given in ChEMBL document CHEMBL6127116, “Discovery of Potent and Selective Blockers Targeting the Epilepsy-Associated KNa1.1 Channel” (J Med Chem, 2024).

What was measured:
[1] = molecular target: Sodium channel protein type 5 subunit alpha (Homo sapiens, UniProt Q14524); assay: Inhibition of Nav1.5 (unknown origin) expressed in HEK293T cells at 10 uM by patch-clamp electrophysiology method; assay type: cell-based
[2] = Inhibition of KNa 1.1 (unknown origin); parameters: species or system Homo sapiens
[3] = molecular target: T1, Potassium channel subfamily T member 1 (Homo sapiens, UniProt Q5JUK3); assay: Inhibition of wild type human KNa1.1 expressed in HEK293T cells by patch-clamp electrophysiology method; assay type: cell-based
T1 sequence (Q5JUK3 whole entry): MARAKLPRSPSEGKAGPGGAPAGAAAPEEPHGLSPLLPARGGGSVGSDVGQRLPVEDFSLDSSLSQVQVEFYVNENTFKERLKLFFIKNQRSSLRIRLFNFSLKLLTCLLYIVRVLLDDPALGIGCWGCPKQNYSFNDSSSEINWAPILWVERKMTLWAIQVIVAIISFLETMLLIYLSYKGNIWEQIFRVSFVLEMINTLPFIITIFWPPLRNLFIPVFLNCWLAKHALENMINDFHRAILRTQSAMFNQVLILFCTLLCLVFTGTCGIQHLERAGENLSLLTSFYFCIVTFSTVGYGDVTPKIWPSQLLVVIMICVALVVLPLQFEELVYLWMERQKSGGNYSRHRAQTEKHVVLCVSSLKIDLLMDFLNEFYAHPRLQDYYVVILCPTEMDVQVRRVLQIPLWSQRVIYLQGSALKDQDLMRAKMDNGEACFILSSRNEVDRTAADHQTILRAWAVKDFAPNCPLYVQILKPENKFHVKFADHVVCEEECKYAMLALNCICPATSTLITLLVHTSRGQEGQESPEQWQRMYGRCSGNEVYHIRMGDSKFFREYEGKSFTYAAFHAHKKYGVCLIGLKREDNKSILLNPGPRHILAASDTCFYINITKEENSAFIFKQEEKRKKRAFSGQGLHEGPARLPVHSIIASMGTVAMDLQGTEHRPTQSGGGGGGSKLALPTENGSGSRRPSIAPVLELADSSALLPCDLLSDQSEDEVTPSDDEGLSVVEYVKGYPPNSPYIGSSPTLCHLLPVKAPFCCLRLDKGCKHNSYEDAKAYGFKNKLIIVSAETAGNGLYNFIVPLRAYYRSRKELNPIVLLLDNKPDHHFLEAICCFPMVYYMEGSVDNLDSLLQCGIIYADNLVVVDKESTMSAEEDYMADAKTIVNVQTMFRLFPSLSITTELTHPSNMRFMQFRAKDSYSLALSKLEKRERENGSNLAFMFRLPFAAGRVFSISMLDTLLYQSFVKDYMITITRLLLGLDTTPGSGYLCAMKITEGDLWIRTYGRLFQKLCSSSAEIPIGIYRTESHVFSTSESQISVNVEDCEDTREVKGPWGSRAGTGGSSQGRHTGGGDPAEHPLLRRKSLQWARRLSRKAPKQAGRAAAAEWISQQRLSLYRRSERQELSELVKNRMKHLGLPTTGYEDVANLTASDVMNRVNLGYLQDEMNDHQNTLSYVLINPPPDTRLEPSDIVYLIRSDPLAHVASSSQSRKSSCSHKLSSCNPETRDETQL

[4] = molecular target: T2, Voltage-gated inwardly rectifying potassium channel KCNH2 (Homo sapiens, UniProt Q12809); assay: Inhibition of human ERG expressed in Xenopus laevis oocytes at 10 uM by two-electrode voltage clamp method; assay type: toxicity, cell-based; settings: oocyte
[5] = AUC (0 to t) in male ICR mouse at 1 mg/kg, iv administered as single dose measured upto 24 hrs by HPLC analysis; assay type: ADME, organism-based; settings: in vivo
[6] = Drug concentration in male ICR mouse brain at 1 mg/kg, iv measured after 2 hrs by LC-MS/MS analysis; assay type: ADME, organism-based; settings: read-out: Ct
[7] = Half life in male ICR mouse at 1 mg/kg, iv administered as single dose measured upto 24 hrs by HPLC analysis; assay type: ADME, organism-based; settings: in vivo
[8] = Drug concentration in male ICR mouse plasma at 10 mg/kg, po measured after 0.5 hrs by LC-MS/MS analysis; assay type: ADME, organism-based
[9] = Half life in male ICR mouse at 10 mg/kg, po administered as single dose measured upto 24 hrs by HPLC analysis; assay type: ADME, organism-based; settings: in vivo
[10] = Clearance in male ICR mouse at 1 mg/kg, iv administered as single dose measured upto 24 hrs by HPLC analysis; assay type: ADME, organism-based; settings: in vivo
[11] = Drug concentration in male ICR mouse brain at 10 mg/kg, po measured after 0.5 hrs by LC-MS/MS analysis; assay type: ADME, organism-based; settings: read-out: Ct
[12] = Cmax in male ICR mouse at 1 mg/kg, iv administered as single dose measured upto 24 hrs by HPLC analysis; assay type: ADME, organism-based; settings: in vivo
[13] = Drug concentration in male ICR mouse brain at 1 mg/kg, iv measured after 0.5 hrs by LC-MS/MS analysis; assay type: ADME, organism-based; settings: read-out: Ct
[14] = Drug concentration in male ICR mouse plasma at 1 mg/kg, iv measured after 0.5 hrs by LC-MS/MS analysis; assay type: ADME, organism-based
[15] = Drug concentration in male ICR mouse plasma at 1 mg/kg, iv measured after 2 hrs by LC-MS/MS analysis; assay type: ADME, organism-based
[16] = Volume of distribution at steady state in male ICR mouse at 1 mg/kg, iv administered as single dose measured upto 24 hrs by HPLC analysis; assay type: ADME, organism-based; settings: in vivo, read-out: Vdss
[17] = Oral bioavailability in male ICR mouse at 10 mg/kg administered as single dose measured upto 24 hrs by HPLC analysis; assay type: ADME, organism-based; settings: in vivo
[18] = Cmax in male ICR mouse at 10 mg/kg, po administered as single dose measured upto 24 hrs by HPLC analysis; assay type: ADME, organism-based; settings: in vivo
[19] = MRT (0 to t) in male ICR mouse at 1 mg/kg, iv administered as single dose measured upto 24 hrs by HPLC analysis; assay type: ADME, organism-based; settings: in vivo
[20] = AUC (0 to t) in male ICR mouse at 10 mg/kg, po administered as single dose measured upto 24 hrs by HPLC analysis; assay type: ADME, organism-based; settings: in vivo
[21] = molecular target: T2, Voltage-gated inwardly rectifying potassium channel KCNH2; assay: Inhibition of human ERG expressed in Xenopus laevis oocytes by two-electrode voltage clamp method; assay type: toxicity, cell-based, Oocyte
[22] = MRT (0 to t) in male ICR mouse at 10 mg/kg, po administered as single dose measured upto 24 hrs by HPLC analysis; assay type: ADME, organism-based; settings: in vivo
[23] = Tmax in male ICR mouse at 1 mg/kg, iv administered as single dose measured upto 24 hrs by HPLC analysis; assay type: ADME, organism-based; settings: in vivo
[24] = Drug concentration in male ICR mouse brain at 10 mg/kg, po measured after 2 hrs by LC-MS/MS analysis; assay type: ADME, organism-based; settings: read-out: Ct
[25] = Tmax in male ICR mouse at 10 mg/kg, po administered as single dose measured upto 24 hrs by HPLC analysis; assay type: ADME, organism-based; settings: in vivo
[26] = Drug concentration in male ICR mouse plasma at 10 mg/kg, po measured after 2 hrs by LC-MS/MS analysis; assay type: ADME, organism-based
[27] = molecular target: T1, Potassium channel subfamily T member 1; assay: Inhibition of human SLACK expressed in HEK293 cells

T2 sequence (Q12809 whole entry): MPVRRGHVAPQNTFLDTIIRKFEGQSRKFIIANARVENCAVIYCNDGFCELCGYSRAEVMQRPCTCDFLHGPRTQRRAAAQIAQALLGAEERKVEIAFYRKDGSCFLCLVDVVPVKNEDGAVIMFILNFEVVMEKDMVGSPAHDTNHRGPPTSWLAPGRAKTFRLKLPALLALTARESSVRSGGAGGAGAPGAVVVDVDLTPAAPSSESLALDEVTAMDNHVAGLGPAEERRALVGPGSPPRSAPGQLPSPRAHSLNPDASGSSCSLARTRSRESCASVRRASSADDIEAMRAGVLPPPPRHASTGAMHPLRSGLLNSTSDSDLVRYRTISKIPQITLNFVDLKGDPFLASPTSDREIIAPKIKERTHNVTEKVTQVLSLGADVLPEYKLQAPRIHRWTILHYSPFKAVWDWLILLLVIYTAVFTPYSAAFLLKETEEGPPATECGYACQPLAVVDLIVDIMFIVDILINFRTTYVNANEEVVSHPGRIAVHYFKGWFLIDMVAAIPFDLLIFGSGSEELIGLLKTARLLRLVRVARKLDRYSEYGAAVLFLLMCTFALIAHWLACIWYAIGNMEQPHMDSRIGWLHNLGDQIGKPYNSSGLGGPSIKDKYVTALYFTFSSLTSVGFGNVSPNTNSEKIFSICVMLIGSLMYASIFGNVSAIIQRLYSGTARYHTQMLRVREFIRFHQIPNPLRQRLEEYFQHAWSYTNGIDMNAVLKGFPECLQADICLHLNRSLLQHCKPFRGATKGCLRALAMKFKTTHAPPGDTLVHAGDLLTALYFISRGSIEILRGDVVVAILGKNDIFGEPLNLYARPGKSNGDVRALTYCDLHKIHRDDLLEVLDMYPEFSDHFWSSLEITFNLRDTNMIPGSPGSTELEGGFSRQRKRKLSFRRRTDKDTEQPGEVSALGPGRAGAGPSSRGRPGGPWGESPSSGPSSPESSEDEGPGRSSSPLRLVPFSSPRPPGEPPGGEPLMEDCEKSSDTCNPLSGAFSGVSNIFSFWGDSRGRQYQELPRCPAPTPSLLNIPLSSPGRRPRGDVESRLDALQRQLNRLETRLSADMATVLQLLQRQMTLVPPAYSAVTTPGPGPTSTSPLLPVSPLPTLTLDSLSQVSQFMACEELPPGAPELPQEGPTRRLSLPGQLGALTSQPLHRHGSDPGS
Sequence of Sodium channel protein type 5 subunit alpha (Q14524 whole entry): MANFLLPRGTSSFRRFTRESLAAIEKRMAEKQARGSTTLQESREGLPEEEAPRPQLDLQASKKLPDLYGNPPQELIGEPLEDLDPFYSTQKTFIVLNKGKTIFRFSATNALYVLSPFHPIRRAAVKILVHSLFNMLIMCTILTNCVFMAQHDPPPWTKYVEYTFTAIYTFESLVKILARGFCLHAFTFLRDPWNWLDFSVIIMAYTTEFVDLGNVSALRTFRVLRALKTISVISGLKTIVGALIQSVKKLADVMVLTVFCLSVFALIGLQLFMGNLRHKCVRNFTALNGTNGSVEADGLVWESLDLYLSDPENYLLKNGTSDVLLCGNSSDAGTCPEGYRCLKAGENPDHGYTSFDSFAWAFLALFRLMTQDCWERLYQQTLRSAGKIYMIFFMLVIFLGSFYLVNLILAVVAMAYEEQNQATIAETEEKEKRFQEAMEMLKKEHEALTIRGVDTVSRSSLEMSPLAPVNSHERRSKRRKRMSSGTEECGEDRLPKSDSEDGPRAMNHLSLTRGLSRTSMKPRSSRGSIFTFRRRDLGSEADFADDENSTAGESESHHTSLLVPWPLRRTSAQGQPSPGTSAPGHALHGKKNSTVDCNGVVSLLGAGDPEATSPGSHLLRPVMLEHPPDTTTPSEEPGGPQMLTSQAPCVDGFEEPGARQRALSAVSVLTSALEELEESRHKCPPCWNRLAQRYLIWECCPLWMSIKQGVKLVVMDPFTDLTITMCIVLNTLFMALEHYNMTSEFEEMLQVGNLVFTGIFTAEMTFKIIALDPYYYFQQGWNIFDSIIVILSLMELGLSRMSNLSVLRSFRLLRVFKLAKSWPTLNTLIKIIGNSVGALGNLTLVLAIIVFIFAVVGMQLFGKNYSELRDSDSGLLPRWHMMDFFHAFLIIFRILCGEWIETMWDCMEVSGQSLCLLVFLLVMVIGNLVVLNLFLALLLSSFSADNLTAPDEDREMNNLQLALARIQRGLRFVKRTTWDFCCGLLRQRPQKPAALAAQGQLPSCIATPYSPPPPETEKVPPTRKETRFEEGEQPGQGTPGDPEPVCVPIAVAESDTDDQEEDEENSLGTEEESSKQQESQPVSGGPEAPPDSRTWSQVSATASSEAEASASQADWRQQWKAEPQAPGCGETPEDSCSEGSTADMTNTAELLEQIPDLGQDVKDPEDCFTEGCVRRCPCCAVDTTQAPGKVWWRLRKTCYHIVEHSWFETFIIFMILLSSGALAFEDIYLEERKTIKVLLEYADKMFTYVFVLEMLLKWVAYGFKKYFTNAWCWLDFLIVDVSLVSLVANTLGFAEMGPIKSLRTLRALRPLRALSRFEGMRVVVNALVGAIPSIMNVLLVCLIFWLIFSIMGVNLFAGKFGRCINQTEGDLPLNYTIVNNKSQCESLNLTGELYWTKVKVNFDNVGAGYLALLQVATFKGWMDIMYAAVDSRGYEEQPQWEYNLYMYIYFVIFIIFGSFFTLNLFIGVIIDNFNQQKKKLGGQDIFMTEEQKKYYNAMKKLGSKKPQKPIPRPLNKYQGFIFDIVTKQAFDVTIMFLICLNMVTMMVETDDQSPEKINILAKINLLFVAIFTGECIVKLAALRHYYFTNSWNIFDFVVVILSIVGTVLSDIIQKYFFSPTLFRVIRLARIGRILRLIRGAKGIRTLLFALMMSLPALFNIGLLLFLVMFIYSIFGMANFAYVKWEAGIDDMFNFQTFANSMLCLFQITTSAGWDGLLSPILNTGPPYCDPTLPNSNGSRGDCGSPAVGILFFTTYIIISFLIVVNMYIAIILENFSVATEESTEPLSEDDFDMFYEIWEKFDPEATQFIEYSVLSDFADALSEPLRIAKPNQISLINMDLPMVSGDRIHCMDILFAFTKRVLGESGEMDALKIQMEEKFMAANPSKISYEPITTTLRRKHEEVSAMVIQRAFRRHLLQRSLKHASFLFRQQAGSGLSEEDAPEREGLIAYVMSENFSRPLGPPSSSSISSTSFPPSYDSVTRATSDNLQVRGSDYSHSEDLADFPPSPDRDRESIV

## CN(C)CCCCNCc1c(OCc2ccc(F)cc2)ccc2ccccc12
[1]
  inhibition (INH): Not Active

## CC(C)COCC(CN(Cc1ccccc1)c1ccccc1)N1CCCC1 (stereo not drawn) [BEPRIDIL]
[2]
  IC50: 6.36 µM
[3]
  IC50: 16.3 µM

## NCCNCCCc1c(OCc2ccc(Br)cc2)ccc2ccccc12
[1]
  inhibition (INH): Not Active
[4]
  inhibition (INH): Not Active

## CN1CCC(NCc2c(OCc3ccc(Br)cc3)ccc3ccccc23)CC1
[5]
  AUC(0-t) at 24 h: 62 ng·h/mL
[6]
  concentration at 2 h: 702 ng/mL
[7]
  half-life: 3.57 h
[8]
  concentration at 0.5 h: 32.4 ng/mL
[9]
  half-life: 7.23 h
[10]
  clearance: 249 mL/min/kg
[11]
  concentration at 0.5 h: 102 ng/mL
[12]
  Cmax: 25.4 ng/mL
[13]
  concentration at 0.5 h: 960 ng/mL
[14]
  concentration at 0.5 h: 12.8 ng/mL
[15]
  concentration at 2 h: 4.16 ng/mL
[16]
  Vd: 132 L/kg
[17]
  bioavailability: 17.8%
[18]
  Cmax: 43.8 ng/mL
[19]
  MRT last at 24 h: 7.21 h
[20]
  AUC(0-t) at 24 h: 110 ng·h/mL
[21]
  IC50: 14.9 µM
[22]
  MRT last at 24 h: 5.37 h
[23]
  Tmax: 4.8 min
[24]
  concentration at 2 h: 158 ng/mL
[25]
  Tmax: 0.17 h
[26]
  concentration at 2 h: 9.16 ng/mL

## COc1ccc(Cl)cc1NC(=O)CN1CCN(S(=O)(=O)N2CCC(C)CC2)CC1
[27]
  IC50: 1.84 µM
